Species: Gallus gallus
Test: Tested for anti-coccidial activity
Assay type: functional

Point of comparison: `O=c1cnn(-c2ccc(S(=O)(=O)N3CCOCC3)c(Cl)c2)c(=O)[nH]1`, “Log 1/MEC” value 1.09. Against it:
- Cc1cc(Cl)cc(-n2ncc(=O)[nH]c2=O)c1 — within 0.2 log units, 1.2
- CSc1ccc(Oc2c(C)cc(-n3ncc(=O)[nH]c3=O)cc2C)cc1C — higher, 2.27
- Cc1cc(-n2ncc(=O)[nH]c2=O)cc(Cl)c1S(=O)(=O)c1ccc(Cl)cc1 — higher, 1.71
- CSc1ccc(Oc2c(C)cc(-n3ncc(=O)[nH]c3=O)cc2C)cc1 — higher, 2.25
- Cc1cc(-n2ncc(=O)[nH]c2=O)ccc1Oc1ccc(Cl)cc1 — lower, 0.74
- COc1cc(-n2ncc(=O)[nH]c2=O)cc(OC)c1OC — lower, -0.55
- COc1cc(OC)cc(-n2ncc(=O)[nH]c2=O)c1 — lower, -0.3
- O=c1cnn(-c2cc(Cl)c(Cc3ccc(Cl)cc3)c(Cl)c2)c(=O)[nH]1 — higher, 3.18
- O=c1cnn(-c2cccc(C(F)(F)F)c2)c(=O)[nH]1 — within 0.2 log units, 0.93
- O=c1cnn(-c2ccc(S(=O)(=O)c3ccccc3)cc2)c(=O)[nH]1 — within 0.2 log units, 1.04
- O=c1cnn(-c2ccc(Oc3ccc4cc(Br)ccc4c3)c(Cl)c2)c(=O)[nH]1 — higher, 1.77
- CSc1ccc(Oc2ccc(-n3ncc(=O)[nH]c3=O)cc2C)cc1 — higher, 2.23
- O=c1cnn(-c2ccc(F)c(C(F)(F)F)c2)c(=O)[nH]1 — within 0.2 log units, 1.26
- Cc1cc(-n2ncc(=O)[nH]c2=O)cc(Cl)c1Oc1ccc(S(=O)(=O)NC2CC2)cc1Cl — higher, 1.51
- COc1c(Cl)cc(-n2ncc(=O)[nH]c2=O)cc1Cl — lower, 0.06
- Cc1cc(-n2ncc(=O)[nH]c2=O)cc(C)c1C(=O)c1ccc(Cl)cc1 — higher, 1.38
- Cc1cc(-n2ncc(=O)[nH]c2=O)ccc1Oc1ccc(Br)cc1 — higher, 1.7
- Cc1cc(-n2ncc(=O)[nH]c2=O)cc(C)c1[S+]([O-])c1ccc(Cl)cc1 (centres undefined) — higher, 2.58
- O=c1cnn(-c2cccc(Cl)c2)c(=O)[nH]1 — lower, 0.25
- O=C(c1ccc(Cl)cc1)c1c(Cl)cc(-n2ncc(=O)[nH]c2=O)cc1Cl — higher, 2.9
- O=c1cnn(-c2ccc(C(O)c3ccc(Cl)cc3)c(Cl)c2)c(=O)[nH]1 (centres undefined) — higher, 2.26
- O=c1cnn(-c2ccc([N+](=O)[O-])cc2)c(=O)[nH]1 — lower, -0.03
- O=c1cnn(-c2ccccc2)c(=O)[nH]1 — lower, -0.42
- Cc1cc(-n2ncc(=O)[nH]c2=O)ccc1Oc1ccc(S(C)(=O)=O)cc1 — higher, 1.97
- O=c1cnn(-c2ccc(Oc3ccc(I)cc3)c(Cl)c2)c(=O)[nH]1 — higher, 1.77
- Cc1cc(-n2ncc(=O)[nH]c2=O)ccc1Oc1ccc(Cl)cc1Cl — higher, 1.69
- O=c1cnn(-c2ccc(Oc3ccccc3)cc2)c(=O)[nH]1 — lower, -0.25
- Cc1cc(-n2ncc(=O)[nH]c2=O)cc(Cl)c1Sc1ccc(Cl)cc1 — higher, 3.28
- O=c1cnn(-c2ccc(Sc3ccc4ccccc4c3)c(Cl)c2)c(=O)[nH]1 — lower, 0.48
- O=c1cnn(-c2ccc(S(=O)(=O)c3ccc(Br)cc3)cc2)c(=O)[nH]1 — higher, 1.71
- O=c1cnn(-c2ccc(Sc3ccc(Cl)cc3)c(Cl)c2)c(=O)[nH]1 — higher, 2.26
- CSc1ccc(Oc2ccc(-n3ncc(=O)[nH]c3=O)cc2Cl)cc1 — higher, 1.98
- O=c1cnn(-c2ccc(Cc3ccc(Cl)cc3)c(Cl)c2)c(=O)[nH]1 — higher, 1.64
- Cc1cc(-n2ncc(=O)[nH]c2=O)cc(Cl)c1Oc1ccc(Cl)cc1 — higher, 1.98
- Cc1cc(-n2ncc(=O)[nH]c2=O)cc(C)c1Sc1ccc(Cl)cc1 [TIAZURIL] — higher, 2.86
- Cc1cc(-n2ncc(=O)[nH]c2=O)ccc1C(O)c1ccccc1 (centres undefined) — within 0.2 log units, 1.01
- Cc1cc(-n2ncc(=O)[nH]c2=O)cc(C)c1S(=O)(=O)N1CCOCC1 — higher, 1.39
- O=c1cnn(-c2ccc(Br)c(C(F)(F)F)c2)c(=O)[nH]1 — higher, 1.35
- O=c1cnn(-c2cc(Cl)c(S(=O)(=O)c3ccc(Cl)cc3)c(Cl)c2)c(=O)[nH]1 — higher, 2.94
- O=c1cnn(-c2cc(Cl)c(Sc3ccc(Cl)cc3)c(Cl)c2)c(=O)[nH]1 — higher, 3.3
- CS(=O)(=O)c1ccc(-n2ncc(=O)[nH]c2=O)cc1 — lower, -0.27
- O=c1cnn(-c2cc(Cl)cc(Cl)c2)c(=O)[nH]1 — higher, 1.81
- O=c1cnn(-c2cc(Cl)c(S(=O)(=O)N3CCOCC3)c(Cl)c2)c(=O)[nH]1 — within 0.2 log units, 1.13
- CC(=O)c1ccc(Oc2c(C)cc(-n3ncc(=O)[nH]c3=O)cc2Cl)cc1 — higher, 2.27
- N#Cc1cccc(-n2ncc(=O)[nH]c2=O)c1 — lower, 0.85
- CC(=O)c1ccc(Sc2c(C)cc(-n3ncc(=O)[nH]c3=O)cc2Cl)cc1 — higher, 3.19
- Cc1cc(-n2ncc(=O)[nH]c2=O)cc(Cl)c1Oc1ccc(C(C)O)cc1 (centres undefined) — higher, 2.27
- N#CC(c1ccc(Cl)cc1)c1c(Cl)cc(-n2ncc(=O)[nH]c2=O)cc1Cl (centres undefined) [DICLAZURIL] — higher, 3.61
- CCN(C)S(=O)(=O)c1ccc(Oc2c(C)cc(-n3ncc(=O)[nH]c3=O)cc2Cl)c(Cl)c1 — higher, 2.11
- O=c1cnn(-c2ccc(S(=O)(=O)c3ccc(Cl)cc3)cc2)c(=O)[nH]1 — higher, 1.96
- Cc1cc(C)cc(-n2ncc(=O)[nH]c2=O)c1 — lower, 0.86
- Cc1cc(-n2ncc(=O)[nH]c2=O)cc(C)c1S(=O)(=O)c1ccc(Cl)cc1 — higher, 2.59
- O=c1cnn(-c2ccc(Oc3ccc(Cl)cc3Cl)c(Cl)c2)c(=O)[nH]1 — higher, 1.71

These compounds were tested against T1, Monoamine oxidase (Homo sapiens, UniProt P21397+P27338) (assay: Binding affinity towards monoaminooxidase Relative to MPTP).
T1 sequence (P21397 whole entry): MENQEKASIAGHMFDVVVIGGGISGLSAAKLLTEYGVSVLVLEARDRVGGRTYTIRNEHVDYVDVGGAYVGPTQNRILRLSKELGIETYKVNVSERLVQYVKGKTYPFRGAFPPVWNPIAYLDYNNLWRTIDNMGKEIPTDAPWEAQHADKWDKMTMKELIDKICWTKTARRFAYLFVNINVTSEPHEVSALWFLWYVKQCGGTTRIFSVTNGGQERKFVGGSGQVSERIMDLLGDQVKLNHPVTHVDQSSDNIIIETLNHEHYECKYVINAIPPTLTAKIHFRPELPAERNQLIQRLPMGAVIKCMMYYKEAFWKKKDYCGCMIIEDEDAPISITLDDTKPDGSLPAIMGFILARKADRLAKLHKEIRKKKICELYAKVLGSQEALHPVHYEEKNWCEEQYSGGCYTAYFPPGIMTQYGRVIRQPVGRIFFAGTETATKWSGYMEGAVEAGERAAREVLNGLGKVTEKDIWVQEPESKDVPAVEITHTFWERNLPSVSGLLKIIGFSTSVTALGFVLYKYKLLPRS
T1 sequence (P27338 whole entry): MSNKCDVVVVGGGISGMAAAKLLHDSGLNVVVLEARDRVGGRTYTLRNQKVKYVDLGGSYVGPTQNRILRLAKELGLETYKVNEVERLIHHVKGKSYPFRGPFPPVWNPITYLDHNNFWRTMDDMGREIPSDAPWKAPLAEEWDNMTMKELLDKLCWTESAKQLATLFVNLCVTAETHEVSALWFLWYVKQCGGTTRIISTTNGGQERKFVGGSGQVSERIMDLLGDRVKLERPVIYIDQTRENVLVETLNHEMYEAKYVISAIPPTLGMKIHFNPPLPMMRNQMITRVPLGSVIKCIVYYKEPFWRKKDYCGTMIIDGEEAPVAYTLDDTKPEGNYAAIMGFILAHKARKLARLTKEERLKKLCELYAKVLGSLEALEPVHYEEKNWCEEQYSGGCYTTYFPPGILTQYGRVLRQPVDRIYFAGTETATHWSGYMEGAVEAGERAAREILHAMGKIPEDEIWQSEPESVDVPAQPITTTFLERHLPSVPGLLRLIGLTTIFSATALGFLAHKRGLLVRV
Assay type: protein assay

Point of comparison: `CC(C)N1CC=C(c2ccccc2)CC1`, Relative activity 1. Against it:
- Cc1cccc(C)c1C1=CCN(C)CC1 — higher, 3
- CN1CC=C(c2ccccc2Cl)CC1 — higher, 3
- CN1CCc2c([nH]c3ccccc23)C1 — higher, 2
- CCCN1CC=C(c2ccccc2)CC1 — the same, 1
- C1=C(c2ccccc2)CCN(Cc2ccccc2)C1 — the same, 1
- CN1CC=C(c2ccccc2C(F)(F)F)CC1 — higher, 3
- Cc1cccc(C2=CCN(C)CC2)c1 — higher, 3
- C/C(=C\CN(C)C)c1ccccc1 — higher, 3
- CN1CC=C(c2ccccc2F)CC1 — higher, 3
- CCCCN1CC=C(c2ccccc2)CC1 — the same, 1
- COc1cccc(C2=CCN(C)CC2)c1 — higher, 2
- CCC1=CCN(C)CC1 — higher, 2
- Cc1ccccc1C1=CCN(C)CC1 — higher, 3
- CC1CN(C)CC=C1c1ccccc1 (centres undefined) — higher, 2
- CN1CC=C(c2cccc(Cl)c2)CC1 — higher, 3
- N#CCCC(=O)N1CC=C(c2ccccc2)CC1 — the same, 1
- Fc1ccc(C2=CCNCC2)cc1 — higher, 2
- C=CCN1CC=C(c2ccccc2)CC1 — the same, 1
- CN1CC=C(c2cccs2)CC1 — higher, 2
- CC1=C(c2ccccc2)CCN(C)C1 — higher, 2
- CCN1CC=CCC1 — higher, 2
- CN1CC=C(C(C)(C)C)CC1 — higher, 2
- Cc1ccc(C2=CCN(C)CC2)cc1 — higher, 2
- CN1CC=C(c2cccc(Br)c2)CC1 — higher, 3
- CN1CC=C(c2ccc(Cl)cc2)CC1 — higher, 2
- CN1CC=C(C2CCCCC2)CC1 — higher, 3
- CCN1CC=C(c2ccccc2)CC1 — higher, 2
- COc1ccccc1C1=CCN(C)CC1 — higher, 3
- CN1CCC(c2ccccc2)CC1 — the same, 1
- Clc1ccc(C2=CCNCC2)cc1 — higher, 2
- CN1CC=C(c2ccccc2)CC1 — higher, 3
- OCCN1CC=C(c2ccccc2)CC1 — higher, 2
- C1=C(c2ccccc2)CCN(CC2CC2)C1 — the same, 1
- CN1CC=C(Cc2ccccc2)CC1 — higher, 3
- CN1CC=C(c2cccn2C)CC1 — higher, 3
- CCc1ccccc1C1=CCN(C)CC1 — higher, 3
- CN1CC=C(c2cccc(F)c2)CC1 — higher, 3
- C1=C(c2ccccc2)CCNC1 — higher, 3
- CN1CC=C(c2ccc(F)cc2)CC1 — higher, 2
